Assay results reported in patent US5773573A, “HIV peptides” (priority 1994, dated 1998).
Read-outs that look alike come from different tables or passages of the source. Residues, ends and D or L forms follow the SMILES beside them.

What was measured:
[1] = system: HIV; assay: Cellular TCID Assay on PBMC of HIV infected patient given HEP1; type: in vivo; conditions: patient three; for TCID, normalised data (day 1 = 100): oral HEP1 10 mg daily day 2-22
Protocol: (§1) The objective of this study was to determine in an HIV infected patient if the induction of immunological tolerance to HEP1 could reduce immune activation and HIV infection. The design of the first clinical experiment was to orally administer HEP1 to the patient in daily 10 mg doses (the lower end of the preferred dose range). This was then followed approximately three months later with a subcutaneous administration of HEP1 at a higher dose of 140 mg. To assess the therapeutic benefit of HEP1, the following disease progression markers were measured by taking blood samples before, during and after each trial and determining: HIV levels by a p24 antigen assay, HIV infectivity by a cellular TCID assay and immune activation by quantitating levels of various lymphocytes.
Cellular TCID is a technique that measures the relative amount of viral load within cells. Within four hours of a sample being taken from the HIV infected patient, 10^6 viable PBMC from the sample were obtained by centrifugation of the anticoagulated blood over Ficoll-Hypaque lymphocyte separation medium. A serial dilution of the patients cells was set up in a 24 well plate in decreasing amounts (1:1, 1:4, 1:16, 1:64 and 1:256 and a negative control using 0.9 ml special media (RPMI-1640) supplemented with 15% fetal calf serum and 10% interleukin 2. Infected cells were then cocultivated with 10^6 PBMC derived from an uninfected human donor that had been stimulated for 24-48 hours with phytohaemagglutin (PHA) to activate the cells to make them susceptible to infection by HIV. The cocultures were subsequently monitored for the presence of p24 antigen in the supernatant fluid twice weekly for up to 14 days, during this period the plates were spun on days 4,7,11 and 14 and then a 50% medium change was performed. […]
(§2) The following markers of HIV disease progression were assayed: p24Ag (the concentration of HIV p24 protein in picogram/ml in the blood), TCID (the infectivity of the HIV in the cells of blood sample measured by an in vitro cell culture assay in which a serial dilution of the sample was mixed with activated uninfected PBMC and the level of HIV infection determined by p24Ag assay), total white count (immune activation measured by the number of white cells per mm^3), CD4 (the number of CD4 positive cells per mm^3), CD8 (the number of CD8 positive cells per mm^3), NK (the number of Natural Killer cells per mm^3), Lymphocytes (the number of cells per mm^3), Monocytes (the number of cells per mm^3), and Granulocytes (the number of cells per mm^3). Normalised data was calculated by dividing each data point by the value of its data series on day 1 of the trail and multiplying by 100.

[2] = system: HIV p24 antigen; assay: p24Ag Assay on blood samples of HIV infected patient given HEP1; type: in vivo; conditions: patient three
Protocol: as §1
p24Ag is a marker of HIV infection as well as a predictor of HIV disease progression. The p24Ag assay measures p24 antigen from the core of HIV and is an immunoassay using murine monoclonal antibody coated onto microwell strips. The assay detects HIV in plasma, serum or tissue culture medium. If present, the antigen binds to the antibody-coated microwells. The bound antigen is recognised by biotinylated antibodies to HIV which react with conjugated strepavidin-horseradish peroxidase. Colour develops from the reaction of the peroxidase with hydrogen peroxidase in the presence of tetramethylbenzidine (TMB) substrate. Specimens which are HIV p24Ag positive can be quantitated by setting up a standard curve using serial dilutions of the Antigen Reagent. The assay is not accurate below 30 picograms per ml.
as §2

[3] = patient three
Protocol: Oral administration of HEP1 solution containing 10 mg HEP1 was started on day 2 of the trial and continued until day 22. Further Blood samples were taken for analysis on day 7, day 14, day 21 and day 28 of the trial (7 days after the last dose of HEP1).

[4] = oral administration of HEP1 (FIG. 2)
[5] = orally administered HEP1 10 mg daily
[6] = oral HEP1 10 mg daily day 2-22, day 1, before first dose
[7] = oral HEP1 10 mg daily day 2-22, day 7, during treatment
[8] = oral HEP1 10 mg daily day 2-22, day 28, after treatment
[9] = single subcutaneous HEP1 injection in the abdominal wall

CC(C)[C@H](NC(=O)[C@@H](NC(=O)[C@H](CCC(=O)O)NC(=O)[C@H](CCCNC(=N)N)NC(=O)[C@H](CCCNC(=N)N)NC(=O)[C@H](CCCCN)NC(=O)[C@H](CCCCN)NC(=O)[C@H](CCC(=O)O)NC(=O)[C@@H](N)[C@@H](C)O)[C@@H](C)O)C(=O)N[C@@H](CCC(=O)O)C(=O)N[C@@H](CCCNC(=N)N)C(=O)N[C@@H](CCC(=O)O)C(=O)N[C@@H](CCCCN)C(=O)N[C@@H](CCC(=O)O)C(=O)O [HEP1, NH2 ThrGluLysLysArgArgGluThrValGluArgGluLysGluCOOH] (H-TEKKRRETVEREKE-OH)
TCID, normalised data (day 1 = 100) ([1]; day 1, before first dose): 100
TCID, normalised data (day 1 = 100) ([1]; day 28, after treatment): 6
HIV infectivity as measured by a TCID assay, course [1, 4]: decline
reduction of the infectivity of HIV as measured by TCID [1, 5]: 16 X
p24Ag [2, 6]: 71 picogram/ml
p24Ag, normalised data (day 1 = 100) [2, 6]: 100
p24Ag [2, 7]: 44 picogram/ml
p24Ag, normalised data (day 1 = 100) [2, 7]: 62
p24Ag [2, 8]: 38 picogram/ml
p24Ag, normalised data (day 1 = 100) [2, 8]: 54
HIV virus particles as measured by p24Ag levels, course [2, 4]: decline
persistence of the effect on p24Ag and TCID after treatment [2, 5]: 7 days
reduction of viral load as measured by p24Ag [2, 5]: 46%
p24Ag ([2]; single subcutaneous HEP1 dose on day 1, day-91, end of oral study): 38 picogram/ml
adverse reactions ([3]; oral HEP1 10 mg daily day 2-22): no adverse reactions
adverse reactions [3, 9]: no other adverse reactions
duration of stinging sensation after injection [3, 9]: approximately 15 minutes
